According to US20190307820A1, “COMPOSITIONS AND METHODS OF USING STAT1/3 INHIBITORS WITH ONCOLYTIC HERPES VIRUS” (priority 2016, published 2019):

Experiments:
[1] = system: LnCap cells; assay: MTT cytotoxicity assay, LnCap cells; type: cell-based; conditions: Homo sapiens, 72 hours, read-out: Inhibitory concentration 50% (IC50)
Experimental: FIGS. 1A-1B are graphs that show an anti-tumor effect of nifuroxazide. (FIG. 1A) Cells were treated with indicated concentration of nifuroxazide for 72 hours. Cytotoxicity was measured by using MTT assay. (FIG. 1B) Subcutaneously U87 tumor bearing mice were peritoneally injected with indicated doses of nifuroxazide. Tumor size was measured using calipers at day 7 post nifuroxazide treatment.
In this example, the antitumor effect of nifuroxazide is evaluated in different tumor cells. Cells were treated with nifuroxazide for 72 hours (FIG. 1A). […] To verify the anti-tumor efficacy of nifuroxazide in vivo, animals with subcutaneous U87 tumor implants were injected in the peritoneum with vehicle, 1 mg/kg nifuroxazide and 50 mg/kg nifuroxazide. […] Tumor volume was reduced around 25% and 60% after 7 days treatment with 1 mg/kg nifuroxazide and 50 mg/kg nifuroxazide respectively (FIG. 1B).
Cells were seeded in a 96-well plate at a density of 1×104 (U87). After overnight incubation, cells were treated with only vehicle or indicated MOI of virus or indicated concentration of drugs or reagents. After 2 to 3 days of treatment cell viability was measured by MTT assay (Sigma, Canada) according to the manufacturer's instruction. […] After overnight incubation with lysis buffer, cell viability was measured at 595 nm using a plate reader (Envision 2103 Multilabel reader, Perkin Elmer).

[2] = system: ICP27 mRNA; assay: RT-qPCR of ICP27 mRNA in HrR3 infected U87 cells; type: cell-based, HSV-1; conditions: HrR3 MOI-5, 6 hours
Experimental: FIGS. 4A-4C show the effect of nifuroxazide on HSV-1 gene expression. (FIG. 4A) U87 cells were treated with HrR3 viruses at a MOI-3 and indicated doses of nifuroxazide. 24 hours post infected, total protein was extracted and subjected to western blot analysis. (FIG. 4B) U87 cells were treated with HrR3 at a MOI-5 and indicated concentration of nifuroxazide for 6 hours. ICP27 mRNA level was detected by RT-qPCR. (FIG. 4C) Relative mRNA level (2^−ΔΔCT) is shown. Data are presented as mean SD, *P<0.05 vs corresponding vehicle treatment.
In this example, the underlying mechanism of nifuroxazide mediated oHSV-1 replication enhancement was examined. The effect of nifuroxazide on viral immediate early gene, ICP27 and ICP4 expression was established by Western blot analysis.

[3] = target: T1, STAT3 (Homo sapiens, UniProt P40763); type: cell-based
T1 construct: Extracted protein was then subjected to western blot assay; endogenous in cells; host or cells: U87 cells, with or without HrR3 infection
T1 sequence (P40763 whole entry): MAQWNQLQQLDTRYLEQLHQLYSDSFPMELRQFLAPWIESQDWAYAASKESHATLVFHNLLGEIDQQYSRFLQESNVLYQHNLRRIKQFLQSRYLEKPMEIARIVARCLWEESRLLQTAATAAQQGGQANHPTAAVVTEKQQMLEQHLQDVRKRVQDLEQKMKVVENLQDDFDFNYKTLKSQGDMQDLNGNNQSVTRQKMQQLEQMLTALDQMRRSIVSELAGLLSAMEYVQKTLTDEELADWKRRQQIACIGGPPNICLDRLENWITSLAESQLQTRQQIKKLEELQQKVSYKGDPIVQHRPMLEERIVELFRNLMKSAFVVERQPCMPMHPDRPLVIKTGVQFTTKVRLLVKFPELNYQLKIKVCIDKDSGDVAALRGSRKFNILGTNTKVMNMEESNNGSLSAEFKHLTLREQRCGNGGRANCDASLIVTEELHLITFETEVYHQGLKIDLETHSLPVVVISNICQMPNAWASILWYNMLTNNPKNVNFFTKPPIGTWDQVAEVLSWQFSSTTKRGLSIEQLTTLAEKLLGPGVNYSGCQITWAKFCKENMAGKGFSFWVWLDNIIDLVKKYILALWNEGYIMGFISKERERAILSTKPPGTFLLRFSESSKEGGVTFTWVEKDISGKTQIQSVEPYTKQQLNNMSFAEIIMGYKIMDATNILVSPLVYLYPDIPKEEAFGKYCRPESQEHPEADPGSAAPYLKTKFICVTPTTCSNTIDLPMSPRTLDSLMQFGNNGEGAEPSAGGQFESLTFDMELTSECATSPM
Experimental: (FIG. 5A) U87 cells were treated with HrR3 at a MOI of 5 and indicated concentration of nifuroxazide for 6 hours. Extracted protein was then subjected to western blot assay. (FIG. 5B) U87 cells were treated with indicated concentration of HrR3 or nifuroxazide or stattic or in combination for 72 hours. Cytotoxicity was measured by MTT assay. (FIG. 5C) Relative mRNA level (2^−ΔΔCT) is shown. Data are presented as mean SD, *P<0.05 vs corresponding vehicle treatment.
FIG. 19A and FIG. 19B, U87 cells (A) or CT26 cells (B) were treated with the indicated concentrations of HrR3 or NF or a combination. Total protein was extracted after 24 hours and subjected to western blot analysis. Band intensity was measured using Image J software and normalized to β-actin. Samples were run in triplicate and data are as means±S.E. Statistically significant differences are indicated by P<0.05 or P<0.01. FIG. 19C, Mice subcutaneously bearing U87 tumors were intratumorally injected with a single dose of HrR3 virus (1×10^6 PFU) and/or peritoneally injected doses of NF as indicated. Tumors were harvested on day 10 post treatment and total protein was extracted from a mouse of each treatment group and subjected to western blot analysis in triplicate. Results are reported as means±S.E.
Expression of key regulator of the Type1 interferon signaling, STAT1 and STAT3, was determined in nifuroxazide treated oHSV-1 infected U87 cells.
NF is a known inhibitor of STAT1 and STAT3. To evaluate the underlying molecular mechanism of the anti-tumour effect of the NF and oHSV-1 combination, the STAT1 and STAT3 status in U87 cells (FIG. 19A) and CT26 cells (FIG. 19B) cells was determined after an overnight treatment with NF and oncolytic viruses.

[4] = system: oHSV-1 (HrR3) in U87 tumors; assay: oHSV-1 amplification in subcutaneous U87 tumors in vivo (viral DNA qPCR, immunohistochemistry); parameters: species or system mice
Source text: FIGS. 6A and 6B show results of in vivo dose dependent HrR3 replication augmentation by nifuroxazide. Subcutaneously U87 tumor bearing mice were intratumorally injected with single dose of HrR3 virus (n=2; […]) or peritoneally injected indicated concentration of nifuroxazide or both combination. Tumors were harvested at day 10 post treatment (FIG. 6A) Total genomic DNA was extracted from the harvested tumors. Viral DNA particles (ICP27) were detected by qPCR and normalized to β-actin. (FIG. 6B) ICP4 and STAT1 expression were determined by immunohistochemistry assay on harvested tumor tissues. Stained sections were then imaged using confocal microscopy.
In this example, oHSV-1 replication augmentation effect was evaluated in vivo. Subcutaneously implanted U87 tumors were treated with either HrR3 alone or in combination with 50 mg/kg nifuroxazide or 100 mg/kg nifuroxazide. Dose dependent oHSV-1 amplification was determined by measuring viral DNA by qPCR in tumor mass. oHSV-1 augmentation was observed 1.6 fold and 2.2 fold by 50 mg/kg nifuroxazide 100 mg/kg nifuroxazide respectively (FIG. 6A).

For O=C(N/N=C/c1ccc([N+](=O)[O-])o1)c1ccc(O)cc1 [nifuroxazide, Benzoic acid, 4-hydroxy-, [(5-nitro-2-furanyl)metylene]hydrazide], the IC50 [1] was about 5 µM, the “ICP27 mRNA expression” value [2] was “up-regulation of ICP27 mRNA expression” and the “HrR3 induced upregulation of STAT3 phosphorylation” value ([3]; 24 hours) was “effectively suppressed”. The STAT3 phosphorylation ([3]; HrR3 MOI of 5, 6 hours) was “dose dependent STAT1 and STAT3 phosphorylation reduction”, the “phosphorylation of STAT3” value ([3]; NF alone, 24 hours) was “dose dependent inhibition” and the “oHSV-1 augmentation (viral DNA by qPCR in tumor mass)” value ([4]; 50 mg/kg nifuroxazide with HrR3, day 10) was 1.6 fold. For the same compound, the “oHSV-1 augmentation (viral DNA by qPCR in tumor mass)” value ([4]; 100 mg/kg nifuroxazide with HrR3, day 10) was 2.2 fold and the “oHSV-1 amplification by immunohistochemistry assay” value ([4]; harvested tumor tissues) was “oHSV-1 amplification was also confirmed”.
